From patent publication US10988496B2, “Platinum (IV) complex” (Nippon Kayaku Kabushiki Kaisha, priority 2015, dated 2021)

Columns and labels:
Type in all cases: cell-based
[1] = test system: gastric cancer cells KATO III; assay: In vitro antitumor assay (Methylene Blue staining), KATO III; conditions: 72 hours culture with compound; read-out: Cell line IC50 KATO III
Source text: (§1) Gastric cancer and pancreatic cancer cell lines were respectively inoculated on a 96-well plate. Gastric cancer cells KATO III were inoculated at a rate of 1×10^4 cells/well gastric cancer cells MKN-1 were inoculated at a rate of 5×10^5 cells/well, gastric cancer cells MKN-45 were inoculated at a rate of 1×10^4 cells/well, gastric cancer cells MKN-74 were inoculated at a rate of 1×10^4 cells/well, pancreatic cancer cells AsPC-1 were inoculated at a rate of […], pancreatic cancer cells BxPC-3 were inoculated at a rate of 5×10^5 cells/well, pancreatic cancer cells DAN-G were inoculated at a rate of 5×10^5 cells/well, and pancreatic cancer cells SUIT-2 were inoculated at a rate of 5×10^5 cells/well. After culturing the cells for 24 hours, each of the Example compounds or each of the Comparative Example compounds was added to the cells to obtain a final concentration of from 0.0244 μmol/L to 100 μmol/L at a common ratio of 4. Three technical replicates were used. Wells to which no drug was added were prepared as control, and wells to which cells and drugs were not added were prepared as blanks. After the cells were cultured for 72 hours, the culture fluid was removed, the cells were fixed with methanol, and then the cells were stained using a Methylene Blue stain solution. After excess Methylene blue stain solution was washed off, 200 μL of 0.1% hydrochloric acid was added to each well, and the dye was extracted. The light absorbance at 660 nm was measured using a microplate reader, and the cell proliferation inhibitory activity (GI %) was calculated from the light absorbance thus obtained by the following formula. GIXY %=(1−(AXY−B)/(C−B))×100
(§2) Here, GIXY % represents the cell prolj feration-inhibitory activity when the concentration of compound. X is Y μM; AXY represents the average light absorbance of the well to which compound X has been added at Y μM; B represents the light absorbance of a blank well; and C represents the tight absorbance of a control well.
(§3) The GIXY % was determined for various compound concentrations, and a proliferation-inhibition curve was plotted from the concentration and the cell proliferation-inhibitory activity.

[2] = test system: gastric cancer cells MKN-1; assay: In vitro antitumor assay (Methylene Blue staining), MKN-1; conditions: 72 hours culture with compound; read-out: Cell line IC50 MKN-1
Source text: as §1, §2, §3

[3] = test system: gastric cancer cells MKN-45; assay: In vitro antitumor assay (Methylene Blue staining), MKN-45; conditions: 72 hours culture with compound; read-out: Cell line IC50 MKN-45
Source text: as §1, §2, §3

[4] = test system: gastric cancer cells MKN-74; assay: In vitro antitumor assay (Methylene Blue staining), MKN-74; conditions: 72 hours culture with compound; read-out: Cell line IC50 MKN-74
Source text: as §1, §2, §3

[5] = test system: pancreatic cancer cells BxPC-3; assay: In vitro antitumor assay (Methylene Blue staining), BxPC-3; conditions: 72 hours culture with compound; read-out: Cell line IC50 BxPC-3
Source text: as §1, §2, §3

[6] = test system: pancreatic cancer cells SUIT-2; assay: In vitro antitumor assay (Methylene Blue staining), SUIT-2; conditions: 72 hours culture with compound; read-out: Cell line IC50 SUIT-2
Source text: as §1, §2, §3

[7] = test system: pancreatic cancer cells DAN-G; assay: In vitro antitumor assay (Methylene Blue staining), DAN-G; conditions: 72 hours culture with compound; read-out: Cell line IC50 DAN-G
Source text: as §1, §2, §3

[8] = test system: pancreatic cancer cells AsPC-1; assay: In vitro antitumor assay (Methylene Blue staining), AsPC-1; conditions: 72 hours culture with compound; read-out: Cell line IC50 AsPC-1
Source text: as §1, §2, §3

Row | Structure (SMILES) | IC50 [1] [µM] | IC50 [2] [µM] | IC50 [3] [µM] | IC50 [4] [µM] | IC50 [5] [µM] | IC50 [6] [µM] | IC50 [7] [µM] | IC50 [8] [µM]
1 | CC(=O)[O][Pt]1([OH])[O]C(=O)C(=O)[O]1.N[C@@H]1CCCC[C@H]1N (mixture of isomers) [Comparative Example 1, trans,cis,cis-[Pt(OH)(OAc)(R,R-dach) (ox)]] | 55.7 | 45.3 | 6.2 | > 100 | 44.3 | 26.1 | 36.7 | 62.9
2 | N[C@@H]1CCCC[C@H]1N.O=C1[O][Pt]([Cl])([O]CCO)[O]C1=O (mixture of isomers) [Comparative Example 2, trans,cis,cis-[PtCl (OCH2CH2OH) (R,R-dach) (ox)]] | 42.6 | 10.8 | 1.9 | 58.1 | 5.7 | 6.1 | 5.6 | 9.7
3 | N[C@@H]1CCCC[C@H]1N.O=C1[O][Pt]([OH])([OH])[O]C1=O (mixture of isomers) [Comparative Example 3, trans,cis,cis-[Pt(OH)2 (R,R-dach) (ox)]] |  | > 100 |  | > 100 |  | 39.2 | > 100 | 
4 | N[C@@H]1CCCC[C@H]1N.O=C1[O][Pt]([OH])([Cl])[O]C(=O)C12CCC2 (mixture of isomers) [Comparative Example 5, trans,cis,cis-[PtCl(OH) (R,R-dach) (cbdc)]] |  | 4.5 |  | 29 |  | 3.3 | 3.4 | 
5 | N[C@@H]1CCCC[C@H]1N.O=C1[O][Pt]([OH])([OH])[O]C(=O)C12CCC2 (mixture of isomers) [Comparative Example 6, trans,cis,cis-[Pt(OH)2(R,R-dach) (cbdc)]] |  | > 100 |  | > 100 |  | 79.4 | > 100 | 
6 | N[C@@H]1CCCC[C@H]1N.O=C([O-])C(=O)[O-].[Cl-].[OH-].[Pt+4] (mixture of isomers) [Example 1, trans,cis,cis-[PtCl(OH) (R,R-dach) (ox)]] | 13.8 | 1.9 | 0.3 | 16 | 1.2 | 0.9 | 1 | 3.1
7 | N[C@@H]1CCCC[C@H]1N.O=C1[O][Pt]([OH])([Br])[O]C1=O (mixture of isomers) [Example 2, trans,cis,cis-[PtBr(OH) (R,R-dach) (ox)]] |  | 2.7 |  |  |  | 1.5 |  | 
8 | N[C@@H]1CCCC[C@H]1N.[OH][Pt]([Cl])([Cl])[Cl] (mixture of isomers) [Example 3, trans,cis,cis-[PtCl(OH) (R,R-dach) (Cl)2]] |  | 2.6 |  | 17.1 |  | 0.9 | 8.6 | 
9 | N[C@@H]1CCCC[C@H]1N.O=C(CCc1ccccc1)[O][Pt]1([O]C(=O)CCc2ccccc2)[O]C(=O)C(=O)[O]1 [Comparative Example 4, trans,cis,cis-[Pt(OCOCH2CH2C6H5)2 (R,R-dach)(ox)]] |  | 9.2 |  | 27.3 |  | 1 | 6.8 | 
10 | N[C@@H]1CCCC[C@H]1N.O=C([O-])C(=O)[O-].[Pt+2] [Example 1-OHP, oxaliplatin] | 9.2 | 0.5 | 0.1 | 8.6 | 0.8 |  | 1.1 | 1.6
11 | NC1CCCCC1N.[Cl][Pt][Cl] (stereo not shown) [Pt(dach)Cl2] | 13.8 | 3.7 | 0.5 | 22.3 | 3.4 | 2.1 | 8.5 | 14.7
